Results taken from patent US20080299086A1, “Cultured muscle cells with high metabolic activity and method for production of the cultured muscle cells” (TOHOKU UNIVERSITY, priority 2006, published 2008).

Columns and labels:
[1] = tested on: recombinant GLUT4 (myc-GLUT4-ECFP) in C2C12 myotube cells; assay: Measurement of GLUT4 membrane-translocation activity by anti-myc antibody uptake, western blot analysis; assay type: cell-based, mouse; settings: insulin 100 nM, 60 minutes
Method: The C2C12 myotube cells expressing a recombinant GLUT4, prepared according to Preparation Example 3, were stimulated by insulin with a final concentration of 100 nM for 60 minutes. After 30 minutes from the start of insulin stimulation, an anti-myc-monoclonal antibody with a final concentration of 4 μg/ml was supplemented in a culture medium. After insulin stimulation, the cells were washed 5 times with PBS (−) to remove anti-myc antibodies that were present on the cell membrane, and subsequently, a cell extract was prepared using Laemmli's buffer. The cell extract was used for 12.5% SDS-PAGE, and western blot analysis using an anti-mice-IgG antibody bound to horseradish peroxidase was carried out. Moreover, detection was carried out using a west super femto detection kit (Pierce Biotechnology Inc.).

[2] = tested on: myc-GLUT4-ECFP in C2C12 myotube cells; assay: Immunostaining of myc on the membrane, confocal microscope (membrane translocation of GLUT4); assay type: cell-based, mouse; settings: insulin 100 nM, 60 minutes; FIG. 13
Method: The C2C12 myotube cells (differentiation-type culture myotube cell) expressing a myc-GLUT4-ECFP, prepared according to Preparation Example 3, were stimulated by insulin with a final concentration of 100 nM for 60 minutes. After being washed 3 times with PBS (−), they were fixed by being shaken in PBS (−) supplemented with 2% paraformaldehyde for 15 minutes. After being washed 3 times×10 minutes with PBS (−), they were blocked by being shaken in PBS (−) supplemented with 5% bovine serum for 1 hour. Next, they were shaken for 1 hour using an anti-myc-monoclonal antibody diluted 200-fold with PBS (−) supplemented with 1% bovine serum albumin as a primary antibody. After being washed 5 times×10 minutes with PBS (−), they were shaken for 1 hour using an anti-mice-IgG antibody (The Jackson Laboratory) bound to rhodamine that was diluted 2000-fold with PBS (−) supplemented with 1% bovine serum albumin as a secondary antibody. Subsequently, the glass cover was removed, and they were placed on a glass slide on which Vecta Shield was dropped, and rhodamine and expression of ECFP were observed under a confocal microscope.

Substance: insulin
- amount of the anti-myc antibody incorporated into the cells ([1]; FIG. 14A): significantly increased
- GLUT4 activity increase by insulin (quantified western blot) ([1]; anti-myc antibody 4 μg/ml, FIG. 14C): approximately 3 fold
- membrane translocation of GLUT4 (myc on the membrane) [2]: GLUT4 was translocated on the membrane
